Measurements reported in PubChem BioAssay AID1205 (EPA DSSTox, 2008).
The source made the active and inactive calls.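 The calls were made as follows: active = tumour findings in long-term animal cancer tests in more than one sex, species or organ; inactive = no tumour finding and more than one negative test.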

Assay: DSSTox (CPDBAS) Carcinogenic Potency Database Summary MultiCellCall Results
Details: animal carcinogenicity bioassays, multi-cell call summary
How it was run: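 Summary call drawn from chronic long-term cancer bioassays in rats, mice, hamsters, dogs and nonhuman primates, using the most positive result per sex-species. Score: multispecies=50, multisex=30, multisite=20, summed for combinations.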

Row | SMILES | outcome
1 | CN(C)/N=N/c1nc[nH]c1C(N)=O | active; multisite active; multisex active; multispecies active
2 | C=CC(N)=O | active; multisite active; multisex active
3 | CNc1ccc(N(CCO)CCO)cc1[N+](=O)[O-] | active; multisite active; multisex active; multispecies active
4 | Nc1ncn[nH]1 | active; multisite active; multisex active; multispecies active
5 | CC(C)C=O | inactive; multisex inactive; multispecies inactive
6 | COC1[C@@H](O[C@@H]2O[C@H](C)[C@@H](O[C@H]3C[C@@](C)(O)[C@H](OC(=O)CC(C)C)[C@H](C)O3)[C@H](N(C)C)[C@H]2O)[C@@H](CC=O)C[C@@H](C)[C@@H](O)/C=C/C=C/C[C@@H](C)OC(=O)C[C@H]1OC(C)=O (stereo partly specified) | inactive; multisex inactive
7 | Cc1ccc2c(-c3cccc(O)c3)nc(=O)n(C(C)C)c2c1 | inactive; multisex inactive; multispecies inactive
8 | CCC(Br)(CC)C(=O)NC(N)=O | inactive; multisex inactive; multispecies inactive
9 | C=C(C)C#N | inactive; multisex inactive; multispecies inactive
10 | ClCc1ccccn1 | inactive; multisex inactive; multispecies inactive
11 | O=C(O)c1cccnc1 | inactive; multisex inactive
12 | CC(=O)[O][Sn]([c]1ccccc1)([c]1ccccc1)[c]1ccccc1 | inactive; multisex inactive
13 | Cc1ccc(S(=O)(=O)NC(=O)NN2CCCCCC2)cc1 | inactive; multisex inactive; multispecies inactive
14 | NC(=O)OCC(COC(N)=O)c1ccccc1 | active; multisite active; multisex active; multispecies active
15 | CN(C)C(=O)Nc1ccc(Cl)c(Cl)c1 | inactive; multisex inactive
16 | ClC(Cl)C(Cl)(Cl)Cl | active; multisex active
17 | ClC1=C(Cl)C(Cl)(Cl)C(Cl)=C1Cl | inactive; multisex inactive; multispecies inactive
18 | O=C(O)c1ccncc1 | inactive; multisex inactive; multispecies inactive
19 | CCCCCCCCCCCCCCN(C)N=O | active; multisite active
20 | CN(CCCC(O)c1cccnc1)N=O (stereo unspecified) | active; multisite active
21 | [Cl-].[Cl-].[Sn+2] | inactive; multisex inactive; multispecies inactive
22 | CN(C)C(=O)Nc1ccc(Cl)cc1 | active; multisite active
23 | COC(=O)C1=C(C)NC(C)=C(C(=O)OCCN2CCN(C(c3ccccc3)c3ccccc3)CC2)C1c1cccc([N+](=O)[O-])c1 (stereo unspecified) | inactive; multisex inactive; multispecies inactive
24 | c1ccncc1 | active; multisite active; multisex active; multispecies active

Row | SMILES | outcome
25 | O=C1O[C@H]([C@@H](O)CO)C(O)=C1O | inactive; multisex inactive; multispecies inactive
26 | CN(C)CCC(c1ccc(Cl)cc1)c1ccccn1 (stereo unspecified) | inactive; multisex inactive; multispecies inactive
27 | NC(=O)N(CCc1ccccc1)N=O | active; multisite active; multisex active
28 | COc1ccccc1N | active; multisite active; multisex active; multispecies active
29 | CN(C)C(=O)Cl | active; multisite active; multisex active; multispecies active
30 | ClC1=C(Cl)C2(Cl)C3C(Cl)C=CC3C1(Cl)C2(Cl)Cl (stereo unspecified) | active; multisex active
31 | Cn1c(=O)c2c(ncn2C)n(C)c1=O | inactive; multisex inactive; multispecies inactive
32 | N[C@@H](Cc1cnc[nH]1)C(=O)O | inactive; multisex inactive
33 | CC(Oc1ccc(Cl)cc1Cl)C(=O)O (stereo unspecified) | inactive; multisex inactive
34 | O=[As](O)(O)O | inactive; multispecies inactive
35 | Nc1ccc(Nc2ccccc2)cc1 | inactive; multisex inactive; multispecies inactive
36 | c1ccc2c(c1)Oc1ccccc1O2 | inactive; multisex inactive; multispecies inactive
37 | O=C(O)Cc1c[nH]c2ccccc12 | inactive; multisex inactive
38 | ClCc1ccccc1 | active; multisex active
39 | COc1c2occc2cc2ccc(=O)oc12 | active; multisite active
40 | CCNC(=O)N(CCO)N=O | active; multisite active; multisex active
41 | CCC(=O)C(CC(C)N(C)C)(c1ccccc1)c1ccccc1 (stereo unspecified) | inactive; multisex inactive; multispecies inactive
42 | O=NN1CCCCC1 | active; multisite active; multisex active; multispecies active
43 | ClC1=C(Cl)C2(Cl)C3C(Cl)OC(Cl)C3C1(Cl)C2(Cl)Cl (stereo unspecified) | inactive; multisex inactive
44 | OCC(CO)N[C@H]1C[C@](O)(CO)[C@@H](O)[C@H](O)[C@H]1O | inactive; multisex inactive; multispecies inactive
45 | COC1=CC(=O)C[C@@H](C)[C@]12Oc1c(Cl)c(OC)cc(OC)c1C2=O | active; multisite active; multisex active
46 | CCN(N=O)C(=O)NCCO | active; multisite active; multisex active; multispecies active
47 | Cc1ccc2c(c1N)C(=O)c1ccccc1C2=O | active; multisite active; multisex active; multispecies active
48 | O=[N+]([O-])c1ccc(Cl)cc1 | active; multisite active; multisex active

Row | SMILES | outcome
49 | CC1CN(N=O)C(=O)NC1=O (stereo unspecified) | inactive; multisex inactive
50 | Cc1cccc(Nc2cc(Cl)nc(SCC(=O)O)n2)c1C | active; multispecies active
51 | CN=C(NC#N)NCCSCc1nc[nH]c1C | inactive; multisex inactive; multispecies inactive
52 | CCCOC(=O)C1c2cc3c(cc2CC(C)C1C(=O)OCCC)OCO3 (stereo unspecified) | inactive; multisex inactive
53 | CCCCN(CCCC)C(=S)[S-].CCCCN(CCCC)C(=S)[S-].[Ni+2] | inactive; multisex inactive
54 | Cc1cc(N=Nc2ccccc2C)ccc1N | active; multisex active
55 | Nc1ccc(NC(=O)c2ccc(N)cc2)cc1 | inactive; multisex inactive
56 | S=c1[nH]c2ccccc2s1 | active; multisite active; multisex active
57 | Nc1nc(-c2ccc([N+](=O)[O-])o2)cs1 | active; multisite active; multispecies active
58 | CN1C2CC[C@@H]1CC(NC(=O)c1cc(Cl)cc3c1OC(C)(C)C3)C2 (stereo partly specified) | inactive; multisex inactive
59 | CC(=O)OC/C=C(\C)CCC=C(C)C | inactive; multisex inactive; multispecies inactive
60 | CCN(CC(F)(F)F)N=O | active; multisite active
61 | CC(=O)OC/C=C(C)/C=C/C=C(C)/C=C/C1=C(C)CCCC1(C)C | active; multisex active
62 | CC1=NN(c2ccccc2)C(=O)C1 | inactive; multisex inactive; multispecies inactive
63 | Brc1cc(Br)c(-c2c(Br)c(Br)c(Br)c(Br)c2Br)c(Br)c1Br | active; multisex active
64 | Cc1cc(O)c2c(c1)C(=O)c1cc(O)cc(O)c1C2=O | inactive; multisex inactive; multispecies inactive
65 | c1ccc(N=Nc2ccccc2)cc1 | active; multisite active; multisex active
66 | CCC(Cl)CCC(Cl)C(Cl)CC(Cl)C(Cl)C(Cl)CCl (stereo unspecified) | active; multisite active; multisex active; multispecies active
67 | S=C(SN1CCOCC1)N1CCOCC1 | active; multisite active; multisex active
68 | O=P1(N(CCCl)CCCl)NCCCO1 (stereo unspecified) | active; multisite active; multisex active; multispecies active
69 | NC(=O)N/N=C/c1ccc([N+](=O)[O-])o1 | active; multisite active; multispecies active
70 | O=C(Nc1ccc([N+](=O)[O-])cc1Cl)c1cc(Cl)ccc1O | inactive; multisex inactive; multispecies inactive
71 | COc1ccc(N)cc1N | active; multisite active; multisex active; multispecies active
